According to PubChem BioAssay (NCI):
“And” between values parts separate entries of the source, which are not always exact repeats. Identical values can stand only once.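 Compound exposure: 48 hours, 5 concentrations, 96-well plates. Abbreviation: GI50, concentration required for 50% inhibition of growth. The concentration for full growth arrest is given as TGI.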

Experiments:
Assay in all cases: NCI anticancer screen, dose series, 48 h
DMS 114 small cell lung = test system: DMS 114 small cell lung
SF-295 CNS = test system: SF-295 CNS
CCRF-CEM leukemia = test system: CCRF-CEM leukemia
NCI-H522 lung = test system: NCI-H522 lung
NCI-H23 lung = test system: NCI-H23 lung
UACC-62 melanoma = test system: UACC-62 melanoma
KM20L2 colon = test system: KM20L2 colon
SNB-78 CNS = test system: SNB-78 CNS
OVCAR-5 ovarian = test system: OVCAR-5 ovarian
NCI-H460 lung = test system: NCI-H460 lung
OVCAR-4 ovarian = test system: OVCAR-4 ovarian
SK-MEL-28 melanoma = test system: SK-MEL-28 melanoma
SF-268 CNS = test system: SF-268 CNS
RPMI-8226 leukemia = test system: RPMI-8226 leukemia
HL-60(TB) leukemia = test system: HL-60(TB) leukemia
SR leukemia = test system: SR leukemia
LXFL 529 NSCLC = test system: LXFL 529 NSCLC
KM12 colon = test system: KM12 colon
SF-539 CNS = test system: SF-539 CNS
K-562 leukemia = test system: K-562 leukemia
HOP-92 NSCLC = test system: HOP-92 NSCLC
OVCAR-3 ovarian = test system: OVCAR-3 ovarian
UO-31 renal = test system: UO-31 renal
COLO 205 colon = test system: COLO 205 colon
M19-MEL melanoma = test system: M19-MEL melanoma
MALME-3M melanoma = test system: MALME-3M melanoma
HCT-116 colon = test system: HCT-116 colon
HT29 colon = test system: HT29 colon
SNB-75 CNS = test system: SNB-75 CNS
U251 CNS = test system: U251 CNS
ACHN renal = test system: ACHN renal
M14 melanoma = test system: M14 melanoma
SK-MEL-2 melanoma = test system: SK-MEL-2 melanoma
UACC-257 melanoma = test system: UACC-257 melanoma
HOP-62 NSCLC = test system: HOP-62 NSCLC
A498 renal = test system: A498 renal
HCC-2998 colon = test system: HCC-2998 colon
MDA-MB-231 breast = test system: MDA-MB-231 breast
MDA-MB-435 = test system: MDA-MB-435
DLD-1 colon = test system: DLD-1 colon
MOLT-4 leukemia = test system: MOLT-4 leukemia
HOP-18 NSCLC = test system: HOP-18 NSCLC
SN12C renal = test system: SN12C renal
786-0 renal = test system: 786-0 renal
T-47D breast = test system: T-47D breast
OVCAR-8 ovarian = test system: OVCAR-8 ovarian
NCI/ADR-RES ovarian = test system: NCI/ADR-RES ovarian
MCF7 breast = test system: MCF7 breast
LOX IMVI melanoma = test system: LOX IMVI melanoma
PC-3 prostate = test system: PC-3 prostate
DU-145 prostate = test system: DU-145 prostate
DMS 273 small cell lung = test system: DMS 273 small cell lung
SW-620 colon = test system: SW-620 colon
SK-MEL-5 melanoma = test system: SK-MEL-5 melanoma
IGROV1 ovarian = test system: IGROV1 ovarian
CAKI-1 renal = test system: CAKI-1 renal
SK-OV-3 ovarian = test system: SK-OV-3 ovarian
A549 NSCLC = test system: A549 NSCLC
NCI-H226 lung = test system: NCI-H226 lung
MDA-N = test system: MDA-N
RXF 393 renal = test system: RXF 393 renal
HCT-15 colon = test system: HCT-15 colon
HS 578T breast = test system: HS 578T breast
SNB-19 CNS = test system: SNB-19 CNS
EKVX NSCLC = test system: EKVX NSCLC
BT-549 breast = test system: BT-549 breast
TK-10 renal = test system: TK-10 renal

## CCc1c(O)c(O)c(C(C)=O)c2c(O)c(-c3c(C)cc4c(CC)c(O)c(O)c(C(C)=O)c4c3O)c(C)cc12
DMS 114 small cell lung
  TGI: 18.4 µM
SF-295 CNS
  TGI: 11 µM
CCRF-CEM leukemia
  TGI: 8.64 µM
NCI-H522 lung
  TGI: 14.8 µM
NCI-H23 lung
  TGI: 16.1 µM
UACC-62 melanoma
  TGI: 24.7 µM
KM20L2 colon
  TGI: 17.6 µM
SNB-78 CNS
  TGI: 12.1 µM
OVCAR-5 ovarian
  TGI: 32.9 µM
NCI-H460 lung
  TGI: 38.5 µM
OVCAR-4 ovarian
  TGI: 26.5 µM
SK-MEL-28 melanoma
  TGI: 27.2 µM
SF-268 CNS
  TGI: 37.1 µM
RPMI-8226 leukemia
  TGI: 24.2 µM
HL-60(TB) leukemia
  TGI: 14.9 µM
SR leukemia
  TGI: > 100 µM
LXFL 529 NSCLC
  TGI: 16.5 µM
KM12 colon
  TGI: 11.7 µM
SF-539 CNS
  TGI: 22.4 µM
K-562 leukemia
  TGI: 11.3 µM
HOP-92 NSCLC
  TGI: 10.4 µM
OVCAR-3 ovarian
  TGI: 18 µM
UO-31 renal
  TGI: 22.3 µM
COLO 205 colon
  TGI: 21.4 µM
M19-MEL melanoma
  TGI: 30.8 µM
MALME-3M melanoma
  TGI: 31.5 µM
HCT-116 colon
  TGI: 14.3 µM
HT29 colon
  TGI: 17.1 µM
SNB-75 CNS
  TGI: 30.7 µM
U251 CNS
  TGI: 21.4 µM
ACHN renal
  TGI: 28.8 µM
M14 melanoma
  TGI: 21.6 µM
SK-MEL-2 melanoma
  TGI: 23 µM
UACC-257 melanoma
  TGI: 24.3 µM
HOP-62 NSCLC
  TGI: 27.4 µM

## COc1ccc2c(=O)oc3c(OC)cc(CCN(C)C)c4c(=O)oc1c2c34
A498 renal
  TGI: 34.8 µM and 17.6 µM
HCC-2998 colon
  TGI: 25.2 µM
MDA-MB-231 breast
  TGI: 16.1 µM
MDA-MB-435
  TGI: 16.1 µM
DLD-1 colon
  TGI: 39.4 µM
DMS 114 small cell lung
  TGI: 24.9 µM
SF-295 CNS
  GI50: 15 µM and 6.99 µM
  TGI: 28.5 µM and 14.3 µM
MOLT-4 leukemia
  TGI: 26.8 µM and 17.1 µM
HOP-18 NSCLC
  TGI: 27.6 µM
CCRF-CEM leukemia
  TGI: 3.5 µM and 3.06 µM
SN12C renal
  TGI: 27.7 µM and 15.6 µM
786-0 renal
  GI50: 3.66 µM and 0.762 µM
  TGI: 14.2 µM and 1.51 µM
T-47D breast
  TGI: 18 µM
OVCAR-8 ovarian
  TGI: 30.7 µM and 17.2 µM
NCI-H522 lung
  TGI: 25.6 µM and 13.9 µM
NCI/ADR-RES ovarian
  TGI: 23.5 µM
MCF7 breast
  TGI: 12.9 µM
NCI-H23 lung
  TGI: 32.7 µM and 17.5 µM
UACC-62 melanoma
  TGI: 31.7 µM and 16.6 µM
LOX IMVI melanoma
  GI50: 17 µM and 7.81 µM
  TGI: 31.3 µM and 18 µM
KM20L2 colon
  TGI: 28.1 µM
SNB-78 CNS
  TGI: 35.9 µM
PC-3 prostate
  TGI: 29.4 µM
DU-145 prostate
  TGI: 15.8 µM
DMS 273 small cell lung
  TGI: 31.5 µM
OVCAR-5 ovarian
  TGI: 31.9 µM and 22.3 µM
NCI-H460 lung
  GI50: 13.8 µM and 2.4 µM
  TGI: 29.9 µM and 9.03 µM
SW-620 colon
  GI50: 14 µM and 5.86 µM
  TGI: 28.1 µM and 17.4 µM
OVCAR-4 ovarian
  GI50: 3.47 µM and 8.43 µM
  TGI: 12.3 µM and 16.1 µM
SK-MEL-5 melanoma
  TGI: 24.7 µM and 14.7 µM
IGROV1 ovarian
  GI50: 15.9 µM and 3.03 µM
  TGI: 29.6 µM and 11.5 µM
CAKI-1 renal
  GI50: 17.3 µM and 8.46 µM
  TGI: 31.6 µM and 15.4 µM
SK-OV-3 ovarian
  GI50: 19.5 µM and 8.47 µM
  TGI: 33.7 µM and 15.9 µM
A549 NSCLC
  GI50: 21.3 µM and 8.46 µM
  TGI: 37 µM and 20.2 µM
NCI-H226 lung
  TGI: 33.2 µM and 50 µM
SK-MEL-28 melanoma
  GI50: 4.25 µM and 1.01 µM
  TGI: 15.6 µM and 2.2 µM
SF-268 CNS
  TGI: 28.4 µM and 16.6 µM
RPMI-8226 leukemia
  GI50: 18.1 µM and 8.54 µM
  TGI: 41.3 µM and 19.8 µM
HL-60(TB) leukemia
  GI50: 10.7 µM and 1.84 µM
  TGI: 26.5 µM and 10.2 µM
MDA-N
  TGI: 14.8 µM
LXFL 529 NSCLC
  TGI: 26 µM
KM12 colon
  GI50: 18 µM and 6.41 µM
  TGI: 36 µM and 13.4 µM
SF-539 CNS
  GI50: 22.8 µM and 6.89 µM
  TGI: 37.5 µM and 14 µM
RXF 393 renal
  GI50: 18 µM and 7.95 µM
  TGI: 35.2 µM and 16.8 µM
K-562 leukemia
  TGI: 5.4 µM
HCT-15 colon
  GI50: 16.6 µM and 5.11 µM
  TGI: 36.1 µM and 12.3 µM
HOP-92 NSCLC
  GI50: 21.5 µM and 8.25 µM
  TGI: 39.6 µM and 15.2 µM
OVCAR-3 ovarian
  TGI: 30 µM and 19.8 µM
UO-31 renal
  GI50: 17.3 µM and 8.48 µM
  TGI: 31.1 µM and 15.6 µM
HS 578T breast
  TGI: 24 µM
COLO 205 colon
  TGI: 17.4 µM and 22.1 µM
SNB-19 CNS
  TGI: 29.2 µM and 21.4 µM
EKVX NSCLC
  GI50: 17.8 µM and 7.55 µM
  TGI: 34.9 µM and 15.9 µM
M19-MEL melanoma
  TGI: 28.1 µM
MALME-3M melanoma
  TGI: 28.5 µM
BT-549 breast
  TGI: 15.4 µM
HCT-116 colon
  GI50: 14.3 µM and 5.27 µM
  TGI: 27.9 µM and 11.9 µM
HT29 colon
  GI50: 13.7 µM and 5.51 µM
  TGI: 27 µM and 12.6 µM
SNB-75 CNS
  GI50: 16.4 µM and 8.17 µM
  TGI: 31.5 µM and 17.2 µM
U251 CNS
  TGI: 27.6 µM and 19 µM
ACHN renal
  GI50: 14.8 µM and 5.71 µM
  TGI: 28.1 µM and 11.8 µM
M14 melanoma
  TGI: 31.2 µM and 18.2 µM
SK-MEL-2 melanoma
  TGI: 33.1 µM and 29 µM
UACC-257 melanoma
  GI50: 19.7 µM and 3.31 µM
  TGI: 38.7 µM and 10.3 µM
TK-10 renal
  GI50: 20.2 µM and 8.68 µM
  TGI: 37.1 µM and 16.7 µM
HOP-62 NSCLC
  TGI: 28.7 µM
